ChEMBL document CHEMBL4308841, “Synthesis, in vitro antiproliferative activity, and kinase inhibitory effects of pyrazole-containing diarylureas and diarylamides” (Eur J Med Chem, 2018)

Experiments:
[1] = tested on: SK-MEL-2; assay: Growth inhibition of human SK-MEL-2 cells assessed as cell growth at 10 uM incubated for 48 hrs by sulforhodamine B assay relative to control; assay type: functional; conditions: SK-MEL-2, 48 h, read-out: Activity
[2] = tested on: HT-29; assay: Growth inhibition of human HT-29 cells incubated for 48 hrs by sulforhodamine B assay; assay type: functional, cell-based; conditions: HT-29, 48 h
[3] = tested on: MDA-MB-435; assay: Growth inhibition of human MDA-MB-435 cells incubated for 48 hrs by sulforhodamine B assay; assay type: functional, cell-based; conditions: MDA-MB-435, 48 h
[4] = tested on: IGROV-1; assay: Growth inhibition of human IGROV1 cells incubated for 48 hrs by sulforhodamine B assay; assay type: functional, cell-based; conditions: IGROV-1, 48 h
[5] = tested on: OVCAR-3; assay: Growth inhibition of human OVCAR3 cells incubated for 48 hrs by sulforhodamine B assay; assay type: functional, cell-based; conditions: OVCAR-3, 48 h
[6] = tested on: SK-OV-3; assay: Growth inhibition of human SKOV3 cells incubated for 48 hrs by sulforhodamine B assay; assay type: functional, cell-based; conditions: SK-OV-3, 48 h
[7] = tested on: RXF 393; assay: Growth inhibition of human RXF393 cells incubated for 48 hrs by sulforhodamine B assay; assay type: functional, cell-based; conditions: RXF 393, 48 h
[8] = tested on: HL-60(TB); assay: Growth inhibition of human HL-60(TB) cells assessed as cell growth at 0.01 uM incubated for 48 hrs by sulforhodamine B assay relative to control; assay type: functional; conditions: HL-60, 48 h, read-out: Activity
[9] = tested on: NCI-H226; assay: Growth inhibition of human NCI-H226 cells assessed as cell growth at 0.01 uM incubated for 48 hrs by sulforhodamine B assay relative to control; assay type: functional; conditions: NCI-H226, 48 h, read-out: Activity
[10] = tested on: HCT-15; assay: Growth inhibition of human HCT15 cells assessed as cell growth at 0.01 uM incubated for 48 hrs by sulforhodamine B assay relative to control; assay type: functional; conditions: HCT-15, 48 h, read-out: Activity
[11] = tested on: KM12; assay: Growth inhibition of human KM12 cells assessed as cell growth at 0.01 uM incubated for 48 hrs by sulforhodamine B assay relative to control; assay type: functional; conditions: KM12, 48 h, read-out: Activity
[12] = tested on: IGROV-1; assay: Growth inhibition of human IGROV1 cells assessed as cell growth at 0.01 uM incubated for 48 hrs by sulforhodamine B assay relative to control; assay type: functional; conditions: IGROV-1, 48 h, read-out: Activity
[13] = tested on: A498; assay: Growth inhibition of human A498 cells assessed as cell growth at 0.01 uM incubated for 48 hrs by sulforhodamine B assay relative to control; assay type: functional; conditions: A498, 48 h, read-out: Activity
[14] = tested on: DU-145; assay: Growth inhibition of human DU145 cells assessed as cell growth at 0.01 uM incubated for 48 hrs by sulforhodamine B assay relative to control; assay type: functional; conditions: DU-145, 48 h, read-out: Activity
[15] = tested on: Hs-578T; assay: Growth inhibition of human Hs578T cells assessed as cell growth at 0.01 uM incubated for 48 hrs by sulforhodamine B assay relative to control; assay type: functional; conditions: read-out: Activity
[16] = tested on: MDA-MB-468; assay: Growth inhibition of human MDA-MB-468 cells assessed as cell growth at 0.01 uM incubated for 48 hrs by sulforhodamine B assay relative to control; assay type: functional; conditions: MDA-MB-468, 48 h, read-out: Activity
[17] = tested on: U-251; assay: Growth inhibition of human U251 cells assessed as cell growth at 0.1 uM incubated for 48 hrs by sulforhodamine B assay relative to control; assay type: functional; conditions: U-251, 48 h, read-out: Activity
[18] = tested on: MDA-MB-435; assay: Growth inhibition of human MDA-MB-435 cells assessed as cell growth at 0.1 uM incubated for 48 hrs by sulforhodamine B assay relative to control; assay type: functional; conditions: MDA-MB-435, 48 h, read-out: Activity
[19] = tested on: BT-549; assay: Growth inhibition of human BT549 cells assessed as cell growth at 0.1 uM incubated for 48 hrs by sulforhodamine B assay relative to control; assay type: functional; conditions: BT-549, 48 h, read-out: Activity
[20] = tested on: HCT-116; assay: Growth inhibition of human HCT116 cells assessed as cell growth at 1 uM incubated for 48 hrs by sulforhodamine B assay relative to control; assay type: functional; conditions: HCT-116, 48 h, read-out: Activity
[21] = tested on: SK-MEL-28; assay: Growth inhibition of human SK-MEL-28 cells assessed as cell growth at 1 uM incubated for 48 hrs by sulforhodamine B assay relative to control; assay type: functional; conditions: SK-MEL-28, 48 h, read-out: Activity
[22] = tested on: IGROV-1; assay: Growth inhibition of human IGROV1 cells assessed as cell growth at 1 uM incubated for 48 hrs by sulforhodamine B assay relative to control; assay type: functional; conditions: IGROV-1, 48 h, read-out: Activity
[23] = tested on: OVCAR-3; assay: Growth inhibition of human OVCAR3 cells assessed as cell growth at 1 uM incubated for 48 hrs by sulforhodamine B assay relative to control; assay type: functional; conditions: OVCAR-3, 48 h, read-out: Activity
[24] = tested on: CCRF-CEM; assay: Growth inhibition of human CCRF-CEM cells assessed as cell growth at 100 uM incubated for 48 hrs by sulforhodamine B assay relative to control; assay type: functional; conditions: read-out: Activity
[25] = tested on: HOP-62; assay: Growth inhibition of human HOP62 cells assessed as cell growth at 100 uM incubated for 48 hrs by sulforhodamine B assay relative to control; assay type: functional; conditions: HOP-62, 48 h, read-out: Activity
[26] = tested on: HT-29; assay: Growth inhibition of human HT-29 cells assessed as cell growth at 100 uM incubated for 48 hrs by sulforhodamine B assay relative to control; assay type: functional; conditions: HT-29, 48 h, read-out: Activity
[27] = tested on: UACC-257; assay: Growth inhibition of human UACC257 cells assessed as cell growth at 100 uM incubated for 48 hrs by sulforhodamine B assay relative to control; assay type: functional; conditions: UACC-257, 48 h, read-out: Activity
[28] = tested on: 786-0; assay: Growth inhibition of human 786-0 cells assessed as cell growth at 100 uM incubated for 48 hrs by sulforhodamine B assay relative to control; assay type: functional; conditions: 786-0, 48 h, read-out: Activity
[29] = tested on: T47D; assay: Growth inhibition of human T47D cells assessed as cell growth at 100 uM incubated for 48 hrs by sulforhodamine B assay relative to control; assay type: functional; conditions: read-out: Activity
[30] = read-out: LC50 (the source's name)
[31] = read-out: pLC50 (the source's name) (converted)

## COc1cc(Cl)cc(-c2nn(-c3cccc(NC(=O)Nc4ccc(Cl)c(Cl)c4)c3)cc2-c2ccncc2)c1
[1]
  growth at 10 µM: -32.1%
[2]; [30]
  CC50: > 100 µM
[2]; read-out: pGI50 (converted)
  GI50: 2.4 µM
[2]; [31]
  CC50: > 100 µM
[2]; read-out: pTGI (converted)
  TGI: 9.12 µM
[3]; read-out: GI50
  GI50: 2.06 µM
[3]; read-out: LC50
  LC50: > 100 µM
[3]; read-out: TGI
  TGI: 60 µM
[3]; read-out: pGI50 (converted)
  GI50: 2.09 µM
[3]; read-out: pLC50 (converted)
  LC50: > 100 µM
[3]; read-out: pTGI (converted)
  TGI: 6.03 µM
[4]; read-out: GI50
  GI50: 4.36 µM
[4]; [30]
  CC50: > 100 µM
[4]; read-out: TGI
  TGI: > 100 µM
[4]; read-out: pGI50 (converted)
  GI50: 4.37 µM
[4]; [31]
  CC50: > 100 µM
[4]; read-out: pTGI (converted)
  TGI: > 100 µM
[5]
  IC50: 1.56 µM
[5]; read-out: GI50
  GI50: 1.56 µM
[5]; [30]
  CC50: > 100 µM
[5]; read-out: TGI
  TGI: 29.4 µM
[5]; read-out: pGI50 (converted)
  GI50: 1.55 µM
[5]; [31]
  CC50: > 100 µM
[5]; read-out: pTGI (converted)
  TGI: 29.5 µM
[6]; read-out: GI50
  GI50: 3.5 µM
[6]; [30]
  CC50: > 100 µM
[6]; read-out: TGI
  TGI: 57 µM
[6]; read-out: pGI50 (converted)
  GI50: 3.63 µM
[6]; [31]
  CC50: > 100 µM
[6]; read-out: pTGI (converted)
  TGI: 87.1 µM
[7]
  LC50: > 100 µM
[7]; read-out: GI50
  GI50: 1.96 µM
[7]; read-out: TGI
  TGI: 72.5 µM
[7]; read-out: pGI50 (converted)
  GI50: 1.95 µM
[7]; read-out: pTGI (converted)
  TGI: 7.24 µM
[8]
  growth at 0.01 µM: 99%
[9]
  growth at 0.01 µM: 96%
[10]
  growth at 0.01 µM: 93%
[11]
  growth at 0.01 µM: 96%
[12]
  growth at 0.01 µM: 98%
[13]
  growth at 0.01 µM: 96%
[14]
  growth at 0.01 µM: 101%
[15]
  growth at 0.01 µM: 93%
[16]
  growth at 0.01 µM: 95%
[17]
  growth at 0.1 µM: 92%
[18]
  growth at 0.1 µM: 99%
[19]
  growth at 0.1 µM: 98%
[20]
  growth at 1 µM: 71%
[21]
  growth at 1 µM: 87%
[22]
  growth at 1 µM: 102%
[23]
  growth at 1 µM: 61%
[24]
  growth at 100 µM: -27%
[25]
  growth at 100 µM: 12%
[26]
  growth at 100 µM: -44%
[27]
  growth at 100 µM: -36%
[28]
  growth at 100 µM: -46%
[29]
  growth at 100 µM: -9%

## O=C(Nc1cccc(-n2cc(-c3ccncc3)c(-c3cc(O)cc(Cl)c3)n2)c1)c1ccc(N2CCOCC2)c(C(F)(F)F)c1
[1]
  growth at 10 µM: 22.9%
[2]; read-out: GI50
  GI50: 3.03 µM
[2]; [30]
  CC50: > 100 µM
[2]; read-out: TGI
  TGI: 11.3 µM
[2]; read-out: pGI50 (converted)
  GI50: 3.02 µM
[2]; [31]
  CC50: > 100 µM
[2]; read-out: pTGI (converted)
  TGI: 11.2 µM
[3]; read-out: GI50
  GI50: 2 µM
[3]; read-out: LC50
  LC50: > 100 µM
[3]; read-out: TGI
  TGI: > 100 µM
[3]; read-out: pGI50 (converted)
  GI50: 2.04 µM
[3]; read-out: pLC50 (converted)
  LC50: > 100 µM
[3]; read-out: pTGI (converted)
  TGI: > 100 µM
[4]; read-out: GI50
  GI50: 5.12 µM
[4]; [30]
  CC50: > 100 µM
[4]; read-out: TGI
  TGI: > 100 µM
[4]; read-out: pGI50 (converted)
  GI50: 5.13 µM
[4]; [31]
  CC50: > 100 µM
[4]; read-out: pTGI (converted)
  TGI: > 100 µM
[5]
  IC50: 7.2 µM
[5]; read-out: GI50
  GI50: 7.2 µM
[5]; [30]
  CC50: > 100 µM
[5]; read-out: TGI
  TGI: > 100 µM
[5]; read-out: pGI50 (converted)
  GI50: 7.24 µM
[5]; [31]
  CC50: > 100 µM
[5]; read-out: pTGI (converted)
  TGI: > 100 µM
[6]; read-out: GI50
  GI50: 95.3 µM
[6]; [30]
  CC50: > 100 µM
[6]; read-out: TGI
  TGI: > 100 µM
[6]; read-out: pGI50 (converted)
  GI50: 9.55 µM
[6]; [31]
  CC50: > 100 µM
[6]; read-out: pTGI (converted)
  TGI: > 100 µM
[7]
  LC50: > 100 µM
[7]; read-out: GI50
  GI50: 0.303 µM
[7]; read-out: TGI
  TGI: 19 µM
[7]; read-out: pGI50 (converted)
  GI50: 0.302 µM
[7]; read-out: pTGI (converted)
  TGI: 1.91 µM
[8]
  growth at 0.01 µM: 92%
[9]
  growth at 0.01 µM: 98%
[10]
  growth at 0.01 µM: 91%
[11]
  growth at 0.01 µM: 105%
[12]
  growth at 0.01 µM: 93%
[13]
  growth at 0.01 µM: 97%
[14]
  growth at 0.01 µM: 100%
[15]
  growth at 0.01 µM: 96%
[16]
  growth at 0.01 µM: 92%
[17]
  growth at 0.1 µM: 96%
[18]
  growth at 0.1 µM: 69%
[19]
  growth at 0.1 µM: 97%
[20]
  growth at 1 µM: 58%
[21]
  growth at 1 µM: 44%
[22]
  growth at 1 µM: 91%
[23]
  growth at 1 µM: 99%
[24]
  growth at 100 µM: 2%
[25]
  growth at 100 µM: -7%
[26]
  growth at 100 µM: -41%
[27]
  growth at 100 µM: -27%
[28]
  growth at 100 µM: -82%
[29]
  growth at 100 µM: 7%
